Laboratory results: patent US8247211B2, “Glycopeptide antibiotics” (American Cyanamid Company, priority 2001, dated 2012)

How the values were obtained:
Assay in all cases: In vitro antibacterial evaluation: minimum inhibitory concentration (MIC), broth dilution method
Assay type in all cases: cell-based
Conditions in all cases: 18 hours at 35° C.
Streptococcus sp. = test system: Streptococcus sp.
How it was run: (§1)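 Inoculum: 5×10^5 CFU/mL. Range: 64-0.06 μg/mL. Medium: Muller-Hinton II […]; NCCLS M7-A2 broth dilution. Endpoint: lowest concentration inhibiting growth. Strains include methicillin-, penicillin- and/or vancomycin-resistant clinical isolates.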

Escherichia coli = test system: Escherichia coli
How it was run: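 Test strains, among them recent clinical isolates carrying methicillin, penicillin and/or vancomycin resistance, were inoculated at 5×10^5 CFU/mL. A broth dilution series spanning 64-0.06 μg/mL in Muller-Hinton II […] (NCCLS M7-A2) defined the MIC as the lowest growth-inhibiting concentration.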

Enterococcus sp. = test system: Enterococcus sp.
How it was run: as §1

Staphylococcus sp. = test system: Staphylococcus sp.
How it was run: as §1

[1] = broth dilution, inoculum 5×10^5 CFU/mL

CC(c1ccccc1)C1NC(=O)CNC(=O)C(CO)NC(=O)C(C(O)C2CNC(=N)N2C2OC(CO)C(O)C(O)C2O)NC(=O)C(C(O)C2CNC(=N)N2)NC(=O)C(Cc2ccc(OC3OC(CO)C(OC4OC(CO)C(OCC=Cc5ccc(N(C)C)cc5)C(O)C4O)C(O)C3O)cc2)NC1=O (stereo not shown) [Example 243a]
2 µg/mL: MIC Streptococcus pneumoniae (GC 4565) (Streptococcus sp.; Streptococcus pneumoniae (GC 4565)) | MIC Streptococcus pneumoniae (GC 4565) (Streptococcus sp.; [1])
16 µg/mL: MIC Streptococcus agalactiae (GC 4564) (Streptococcus sp.; Streptococcus agalactiae (GC 4564)) | MIC Streptococcus pneumoniae (ATCC 6301) (Streptococcus sp.; Streptococcus pneumoniae (ATCC 6301)) | MIC Streptococcus agalactiae (GC 4564) (Streptococcus sp.; [1]) | MIC Streptococcus pneumoniae (ATCC 6301) (Streptococcus sp.; [1]) | MIC Enterococcus avium (GC 4558) (Enterococcus sp.; Enterococcus avium (GC 4558)) | MIC Enterococcus faecium (GC 4557) (Enterococcus sp.; Enterococcus faecium (GC 4557)) | MIC Coagulase Negative Staphylococcus (GC 4549) (Staphylococcus sp.; Coagulase Negative Staphylococcus (GC 4549)) | MIC Coagulase Negative Staphylococcus (GC 6257) (Staphylococcus sp.; Coagulase Negative Staphylococcus (GC 6257))
32 µg/mL: MIC Escherichia coli (GC 4560) (Escherichia coli; Escherichia coli (GC 4560)) | MIC Enterococcus faecalis (ATCC 29212) (Enterococcus sp.; Enterococcus faecalis (ATCC 29212)) | MIC Enterococcus faecalis (GC 2242) (Enterococcus sp.; Enterococcus faecalis (GC 2242)) | MIC Enterococcus faecalis (GC 2691) (Enterococcus sp.; Enterococcus faecalis (GC 2691)) | MIC Enterococcus faecalis (GC 3059) (Enterococcus sp.; Enterococcus faecalis (GC 3059)) | MIC Enterococcus faecalis (GC 4552) (Enterococcus sp.; Enterococcus faecalis (GC 4552)) | MIC Enterococcus faecalis (GC 4553) (Enterococcus sp.; Enterococcus faecalis (GC 4553)) | MIC Enterococcus faecalis (GC 4554) (Enterococcus sp.; Enterococcus faecalis (GC 4554)) | MIC Enterococcus faecalis (GC 6189) (Enterococcus sp.; Enterococcus faecalis (GC 6189)) | MIC Enterococcus faecium (GC 2243) (Enterococcus sp.; Enterococcus faecium (GC 2243)) | MIC Enterococcus faecium (GC 4556) (Enterococcus sp.; Enterococcus faecium (GC 4556)) | MIC Enterococcus faecalis (GC 2242) (Enterococcus sp.; [1]) | MIC Enterococcus faecalis (GC 2691) (Enterococcus sp.; [1]) | MIC Enterococcus faecalis (GC 3059) (Enterococcus sp.; [1]) | MIC Coagulase Negative Staphylococcus (GC 4547) (Staphylococcus sp.; Coagulase Negative Staphylococcus (GC 4547)) | MIC Coagulase Negative Staphylococcus (GC 4548) (Staphylococcus sp.; Coagulase Negative Staphylococcus (GC 4548)) | MIC Coagulase Negative Staphylococcus (GC 4551) (Staphylococcus sp.; Coagulase Negative Staphylococcus (GC 4551)) | MIC Staphylococcus aureus (ATCC 29213) (Staphylococcus sp.; Staphylococcus aureus (ATCC 29213)) | MIC Staphylococcus aureus (GC 1131) (Staphylococcus sp.; Staphylococcus aureus (GC 1131)) | MIC Staphylococcus aureus (GC 3051) (Staphylococcus sp.; Staphylococcus aureus (GC 3051)) | MIC Staphylococcus aureus (GC 3053) (Staphylococcus sp.; Staphylococcus aureus (GC 3053)) | MIC Staphylococcus aureus (GC 4541) (Staphylococcus sp.; Staphylococcus aureus (GC 4541)) | MIC Staphylococcus aureus (GC 4542) (Staphylococcus sp.; Staphylococcus aureus (GC 4542)) | MIC Staphylococcus aureus (GC 4544) (Staphylococcus sp.; Staphylococcus aureus (GC 4544)) | MIC Staphylococcus aureus (GC 4545) (Staphylococcus sp.; Staphylococcus aureus (GC 4545)) | MIC Staphylococcus aureus-SMITH (GC 4543) (Staphylococcus sp.; Staphylococcus aureus-SMITH (GC 4543)) | MIC Staphylococcus haemolyticus (GC 4546) (Staphylococcus sp.; Staphylococcus haemolyticus (GC 4546))
8 µg/mL: MIC Streptococcus pyogenes (GC 4563) (Streptococcus sp.; Streptococcus pyogenes (GC 4563)) | MIC Streptococcus pyogenes (GC 4563) (Streptococcus sp.; [1])
>64 µg/mL: MIC Escherichia coli (ATCC 25922) (Escherichia coli; Escherichia coli (ATCC 25922)) | MIC Escherichia coli (GC 4559) (Escherichia coli; Escherichia coli (GC 4559))
1 µg/mL: MIC Streptococcus pneumoniae (GC 1894) (Streptococcus sp.; Streptococcus pneumoniae (GC 1894)) | MIC Streptococcus pneumoniae (GC 1894) (Streptococcus sp.; [1])
